Laboratory results taken from patent publication US20240199649A1 (Biosplice Therapeutics, Inc., priority 2022, published 2024).

Molecular target: recombinant DYRK1A kinase (Homo sapiens (Human), UniProt Q13627)
Test: DYRK1A kinase assay (Ser/Thr 18 peptide Z-lyte FRET assay)
Format: biochemical
Details: DYRK1A 0.25 μg/mL, ATP 15 μM, Ser/Thr peptide 18 4 μM; one hour at room temperature; 11-point dose-response, duplicate
Method: Representative compounds were screened using the assay procedure for DYRK1A kinase activity as described below.
Each compound was dissolved in DMSO as a 10 mM stock and used to prepare compound source plates.
This is a non-radioactive assay using fluorescence resonance energy transfer (FRET) between coumarin and fluorescein to detect kinase activity which is represented as a ratio of coumarin emission/fluorescein emission.
The mixture was allowed to incubate with the representative compounds for one hour at room temperature. All reactions were performed in duplicate. Unphosphorylated (“0% Control”) and phosphorylated (“100% control”) forms of Ser/Thr 18 served as control reactions. Additionally, an 11-point dose-response curve of Staurosporine (1 uM top) was run to serve as a positive compound control.
After incubation, Development Reagent A was diluted in Development Buffer then added to the reaction and allowed to further incubate for one hour at room temperature.
Dose-response curves were generated, and inhibitory concentration (IC50) values were calculated using non-linear regression curve fit in the Dotmatics' Studies Software (Bishops Stortford, UK).

Row | IC50 | SMILES
1 | 172 nM | C[C@]1(O)CC[C@H](Nc2nc(N)c3c(-c4ccn5nccc5c4)ccn3n2)CC1 [Compound 1, trans-4-((4-Amino-5-(pyrazolo[1,5-a]pyridin-5-yl)pyrrolo[2,1-f][1,2,4]triazin-2-yl)amino)-1-methylcyclohexan-1-ol]
2 | 2.5 nM | CNc1nc(N[C@H]2CC[C@](C)(O)CC2)nn2ccc(-c3ccn4nccc4n3)c12 [Compound 20, trans-1-Methyl-4-((4-(methylamino)-5-(pyrazolo[1,5-a]pyrimidin-5-yl)pyrrolo[2,1-f][1,2,4]triazin-2-yl)amino)cyclohexan-1-ol]
3 | 5.8 nM | CNc1nc(N[C@@H]2CCN(C)CC2(F)F)nn2ccc(-c3ccn4nccc4n3)c12 [Compound 44, (R)—N^2-(3,3-Difluoro-1-methylpiperidin-4-yl)-N^4-methyl-5-(pyrazolo[1,5-a]pyrimidin-5-yl)pyrrolo[2,1-f][1,2,4]triazine-2,4-diamine]
4 | 170 nM | CNc1nc(N[C@H]2CC[C@](C)(O)CC2)nn2ccc(-c3ccc4nccn4c3)c12 [Compound 58, trans-4-((5-(Imidazo[1,2-a]pyridin-6-yl)-4-(methylamino)pyrrolo[2,1-f][1,2,4]triazin-2-yl)amino)-1-methylcyclohexan-1-ol]
5 | 1.7 nM | CNc1nc(N[C@H]2CC[C@](C)(O)CC2)nn2ccc(-c3ccc4nc(C)n(C(C)C)c4n3)c12 [Compound 132, trans-4-((5-(3-Isopropyl-2-methyl-3H-imidazo[4,5-b]pyridin-5-yl)-4-(methylamino)pyrrolo[2,1-f][1,2,4]triazin-2-yl)amino)-1-methylcyclohexan-1-ol]
6 | 4.8 nM | CNc1nc(N[C@H]2C[C@](C)(O)C2)nn2ccc(-c3cnc4nc(C)n(CC(F)F)c4c3)c12 [Compound 170, trans-3-((5-(1-(2,2-Difluoroethyl)-2-methyl-1H-imidazo[4,5-b]pyridin-6-yl)-4-(methylamino)pyrrolo[2,1-f][1,2,4]triazin-2-yl)amino)-1-methylcyclobutan-1-ol]
7 | 8 nM | CNc1nc(N[C@H]2CC[C@](C)(O)CC2)nn2ccc(-c3cnc4nc(C)n(CC(F)F)c4c3)c12 [Compound 171, trans-4-((5-(1-(2,2-Difluoroethyl)-2-methyl-1H-imidazo[4,5-b]pyridin-6-yl)-4-(methylamino)pyrrolo[2,1-f][1,2,4]triazin-2-yl)amino)-1-methylcyclohexan-1-ol]
8 | 1.7 nM | CNc1nc(N[C@H]2C[C@@](C)(O)C2)nn2ccc(-c3ccc4nc(C)n(CC(F)F)c4n3)c12 [Compound 174, Cis-3-((5-(3-(2,2-Difluoroethyl)-2-methyl-3H-imidazo[4,5-b]pyridin-5-yl)-4-(methylamino)pyrrolo[2,1-f][1,2,4]triazin-2-yl)amino)-1-methylcyclobutan-1-ol]
9 | 12 nM | CNc1nc(NC2CCC(F)(F)CC2)nn2ccc(-c3ccc4nc(C)n(CC(F)F)c4n3)c12 [Compound 182, N^2-(4,4-Difluorocyclohexyl)-5-(3-(2,2-difluoroethyl)-2-methyl-3H-imidazo[4,5-b]pyridin-5-yl)-N^4-methylpyrrolo[2,1-f][1,2,4]triazine-2,4-diamine]
10 | 4.1 nM | CNc1nc(N[C@H]2CC[C@@H](OC)CC2)nn2ccc(-c3ccc4nc(C)n(CC(F)F)c4n3)c12 [Compound 183, 5-(3-(2,2-Difluoroethyl)-2-methyl-3H-imidazo[4,5-b]pyridin-5-yl)-N^2-(cis-4-methoxycyclohexyl)-N^4-methylpyrrolo[2,1-f][1,2,4]triazine-2,4-diamine]
11 | 0.5 nM | CNc1nc(N[C@H]2CC[C@@H](OCCO)CC2)nn2ccc(-c3ccc4nc(C)n(CC(F)F)c4n3)c12 [Compound 184, 2-((cis-4-((5-(3-(2,2-Difluoroethyl)-2-methyl-3H-imidazo[4,5-b]pyridin-5-yl)-4-(methylamino)pyrrolo[2,1-f][1,2,4]triazin-2-yl)amino)cyclohexyl)oxy)ethan-1-ol]
12 | 2.4 nM | CNc1nc(N[C@H]2CC[C@@H](OCCOC)CC2)nn2ccc(-c3ccc4nc(C)n(CC(F)F)c4n3)c12 [Compound 185, 5-(3-(2,2-Difluoroethyl)-2-methyl-3H-imidazo[4,5-b]pyridin-5-yl)-N^2-(cis-4-(2-methoxyethoxy)cyclohexyl)-N^4-methylpyrrolo[2,1-f][1,2,4]triazine-2,4-diamine]
13 | 1.5 nM | CNc1nc(N[C@H]2CC[C@@H](NC(C)=O)CC2)nn2ccc(-c3ccc4nc(C)n(CC(F)F)c4n3)c12 [Compound 186, N-(cis-4-((5-(3-(2,2-difluoroethyl)-2-methyl-3H-imidazo[4,5-b]pyridin-5-yl)-4-(methylamino)pyrrolo[2,1-f][1,2,4]triazin-2-yl)amino)cyclohexyl)acetamide]
14 | 1.1 nM | CNc1nc(N[C@H]2CC[C@H](NC(C)=O)CC2)nn2ccc(-c3ccc4nc(C)n(CC(F)F)c4n3)c12 [Compound 187, N-(trans-4-((5-(3-(2,2-Difluoroethyl)-2-methyl-3H-imidazo[4,5-b]pyridin-5-yl)-4-(methylamino)pyrrolo[2,1-f][1,2,4]triazin-2-yl)amino)cyclohexyl)acetamide]
15 | 2.2 nM | CNc1nc(N[C@H]2CC[C@@](C)(O)CC2)nn2ccc(-c3ccc4nc(C)n(CC(F)F)c4n3)c12 [Compound 188, Cis-4-((5-(3-(2,2-Difluoroethyl)-2-methyl-3H-imidazo[4,5-b]pyridin-5-yl)-4-(methylamino)pyrrolo[2,1-f][1,2,4]triazin-2-yl)amino)-1-methylcyclohexan-1-ol]
16 | 1.3 nM | CNc1nc(N[C@H]2CC[C@](C)(O)CC2)nn2ccc(-c3ccc4nc(C)n(CC(F)F)c4n3)c12 [Compound 189, trans-4-((5-(3-(2,2-Difluoroethyl)-2-methyl-3H-imidazo[4,5-b]pyridin-5-yl)-4-(methylamino)pyrrolo[2,1-f][1,2,4]triazin-2-yl)amino)-1-methylcyclohexan-1-ol]
17 | 595 nM | CNc1nc(NC23CC4CC(CC(C4)C2)C3)nn2ccc(-c3ccc4nc(C)n(CC(F)F)c4n3)c12 [Compound 196, N^2-(Adamantan-1-yl)-5-(3-(2,2-difluoroethyl)-2-methyl-3H-imidazo[4,5-b]pyridin-5-yl)-N^4-methylpyrrolo[2,1-f][1,2,4]triazine-2,4-diamine]
18 | 2 nM | CNc1nc(N[C@H]2CN(C)C[C@H]2F)nn2ccc(-c3ccc4nc(C)n(CC(F)F)c4n3)c12 [Compound 197, 5-(3-(2,2-Difluoroethyl)-2-methyl-3H-imidazo[4,5-b]pyridin-5-yl)-N^2-((3S,4R)-4-fluoro-1-methylpyrrolidin-3-yl)-N^4-methylpyrrolo[2,1-f][1,2,4]triazine-2,4-diamine]
19 | 0.6 nM | CNc1nc(N[C@@H]2CN(C)C[C@@H]2F)nn2ccc(-c3ccc4nc(C)n(CC(F)F)c4n3)c12 [Compound 198, 5-(3-(2,2-Difluoroethyl)-2-methyl-3H-imidazo[4,5-b]pyridin-5-yl)-N^2-((3R,4S)-4-fluoro-1-methylpyrrolidin-3-yl)-N^4-methylpyrrolo[2,1-f][1,2,4]triazine-2,4-diamine]
20 | 2.4 nM | CNc1nc(N[C@H]2CN(C3COC3)C[C@H]2F)nn2ccc(-c3ccc4nc(C)n(CC(F)F)c4n3)c12 [Compound 199, 5-(3-(2,2-Difluoroethyl)-2-methyl-3H-imidazo[4,5-b]pyridin-5-yl)-N^2-((3S,4R)-4-fluoro-1-(oxetan-3-yl)pyrrolidin-3-yl)-N^4-methylpyrrolo[2,1-f][1,2,4]triazine-2,4-diamine]
21 | 1.3 nM | CNc1nc(N[C@@H]2CN(C3COC3)C[C@@H]2F)nn2ccc(-c3ccc4nc(C)n(CC(F)F)c4n3)c12 [Compound 200, 5-(3-(2,2-Difluoroethyl)-2-methyl-3H-imidazo[4,5-b]pyridin-5-yl)-N^2-((3R,4S)-4-fluoro-1-(oxetan-3-yl)pyrrolidin-3-yl)-N^4-methylpyrrolo[2,1-f][1,2,4]triazine-2,4-diamine]
22 | 1.8 nM | CNc1nc(NC2CCN(C(C)=O)CC2)nn2ccc(-c3ccc4nc(C)n(CC(F)F)c4n3)c12 [Compound 202, 1-(4-((5-(3-(2,2-Difluoroethyl)-2-methyl-3H-imidazo[4,5-b]pyridin-5-yl)-4-(methylamino)pyrrolo[2,1-f][1,2,4]triazin-2-yl)amino)piperidin-1-yl)ethan-1-one]
23 | 2 nM | CNc1nc(NC2CCN(C3COC3)CC2)nn2ccc(-c3ccc4nc(C)n(CC(F)F)c4n3)c12 [Compound 203, 5-(3-(2,2-Difluoroethyl)-2-methyl-3H-imidazo[4,5-b]pyridin-5-yl)-N^4-methyl-N^2-(1-(oxetan-3-yl)piperidin-4-yl)pyrrolo[2,1-f][1,2,4]triazine-2,4-diamine]

Row | SMILES | IC50
24 | CNc1nc(NC2CCN(C3COC3)CC2)nn2ccc(-c3cnc4nc(C)n(C(C)C)c4c3)c12 [Compound 114] | 744 nM
25 | CNc1nc(N[C@H]2C[C@@H](OCCO)C2)nn2ccc(-c3ccc4nc(C)n(CC(F)F)c4n3)c12 [Compound 172, 2-(cis-3-((5-(3-(2,2-Difluoroethyl)-2-methyl-3H-imidazo[4,5-b]pyridin-5-yl)-4-(methylamino)pyrrolo[2,1-f][1,2,4]triazin-2-yl)amino)cyclobutoxy)ethan-1-ol] | 0.9 nM
26 | CNc1nc(NC2CCN(CC(F)F)CC2)nn2ccc(-c3ccc4nc(C)n(CC(F)F)c4n3)c12 [Compound 201, 5-(3-(2,2-Difluoroethyl)-2-methyl-3H-imidazo[4,5-b]pyridin-5-yl)-N^2-(1-(2,2-difluoroethyl)piperidin-4-yl)-N^4-methylpyrrolo[2,1-f][1,2,4]triazine-2,4-diamine] | 0.7 nM
